One block for each molecule: values may come before it.
Key:
[1] = tested on: Gastric secretion (acid output); assay: Gastric antisecretion (Acute fistula method, histamine-stimulated, pylorus-ligated rats); format: in vivo, Male Donryu rats; conditions: i.d., histamine 10 mg/kg i.m.
Method: Male Donryu rats, weighing about 200 g, were fasted for 24 hours before the experiment. […] The gastric cannula was implanted in the forestomach (Acute fistula method). Gastric secretion from cannula was collected into test tubes every one hour and the acid output was titrated. Histamine (10 mg/kg) was intramuscularly given after the first collection of gastric juice. Drugs were intraduodenally given after the second collection of the gastric juice.

[2] = tested on: 0.6 N HCl-induced gastric lesions; assay: Gastric cytoprotection (0.6 N HCl-induced gastric lesions); format: in vivo, Male Donryu rats; conditions: p.o., an hour before 0.6 N HCl, lesion length
Method: Male Donryu rats, weighing about 200 g, were deprived of food and water for 24 hours. One ml of 0.6N HCl solution was given orally and the animals were killed an hour later. […] The length (mm) of each gastric lesion was measured under a dissecting microscope, summed, and used as an index for evaluation. Drugs were orally given an hour before 0.6 N HCl solution treatment.

[3] = target: T1, Histamine H2-receptor (Cavia porcellus, UniProt P47747); assay: Histamine H2-receptor antagonism (isolated right atrium, positive chronotropic effect of histamine); set-up: species or system Male Hartley guinea-pigs; conditions: guinea-pig right atrium, 32±1° C., drugs added 5 minutes before histamine; read-out: pA2 (converted)
T1 construct: The right atrium was dissected and suspended at 0.5 g tension in a 10 ml organ bath; from tissue; host or cells: isolated right atrium of male Hartley guinea-pigs
Method: Male Hartley guinea-pigs, weighing between 300 and 400 g, were used in the experiment. The right atrium was dissected and suspended at 0.5 g tension in a 10 ml organ bath containing Krebs-Henseleit's solution, kept at 32±1° C. and bubbled with the gas mixture (95 % O2 and 5 % CO2). Contractions were recorded with a force-displacement transducer through a strain gange. […] Drugs were added into the organ bath 5 minutes before histamine treatment.

T1 sequence (P47747 whole entry): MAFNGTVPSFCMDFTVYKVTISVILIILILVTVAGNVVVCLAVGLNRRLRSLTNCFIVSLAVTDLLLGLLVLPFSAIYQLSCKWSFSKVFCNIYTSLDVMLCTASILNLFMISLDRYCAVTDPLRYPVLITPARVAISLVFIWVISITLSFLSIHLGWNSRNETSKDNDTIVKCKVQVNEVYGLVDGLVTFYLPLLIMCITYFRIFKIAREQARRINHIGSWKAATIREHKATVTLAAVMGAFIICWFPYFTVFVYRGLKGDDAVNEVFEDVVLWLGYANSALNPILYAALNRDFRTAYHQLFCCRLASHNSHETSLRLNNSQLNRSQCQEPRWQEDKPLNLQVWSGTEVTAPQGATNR

Kb [3]: 35.5 nM
SMILES: CNC(=O)NC/C=C\COc1cccc(CN2CCCCC2)c1 [Example 29]
Inhibition (%) ([1]; Dose 3 mg/kg): 39.1%
Inhibition (%) ([1]; Dose 5 mg/kg): 80.8%
Inhibition (%) ([2]; Dose 5 mg/kg): 49.3%
Inhibition (%) ([2]; Dose 25 mg/kg): 73.8%

Kb [3]: 251 nM
SMILES: CCOc1ccc(NC(=O)NCCCOc2cccc(CN3CCCCC3)c2)cc1 [Example 51, N-(4-Ethoxyphenyl)-N'-[3-(3-piperidinomethylphenoxy)propyl]urea]
Inhibition (%) ([1]; Dose 1 mg/kg): 29.0%
Inhibition (%) ([1]; Dose 6 mg/kg): 52.7%
Inhibition (%) ([1]; Dose 25 mg/kg): 97.1%
Inhibition (%) ([2]; Dose 50 mg/kg): 63.4%

Kb [3]: 27.5 nM
SMILES: CC(C)NC(=O)NCCCOc1cccc(CN2CCCCC2)c1 [Example 54]
Inhibition (%) ([1]; Dose 2 mg/kg): 16.1%
Inhibition (%) ([1]; Dose 5 mg/kg): 68.2%
Inhibition (%) ([1]; Dose 10 mg/kg): 78.8%
Inhibition (%) ([2]; Dose 6 mg/kg): 36.1%
Inhibition (%) ([2]; Dose 25 mg/kg): 73.0%
Inhibition (%) ([2]; Dose 50 mg/kg): 70.1%

More lines, now with the values behind:

SMILES: CN/C(=N/CCSCc1nc[nH]c1C)NC#N [Cimetidine, reference compound]
Inhibition (%) ([1]; Dose 12.5 mg/kg): 51.9%
Inhibition (%) ([1]; Dose 25 mg/kg): 80.0%
Inhibition (%) ([1]; Dose 50 mg/kg): 100.0%
Inhibition (%) ([2]; Dose 100 mg/kg): 22.0%

SMILES: COc1ccc(NC(=O)NCCCOc2cccc(CN3CCCCC3)c2)cc1 [Example 1, N-(4-Methoxyphenyl)-N'-[3-(3-piperidinomethylphenoxy)propyl]urea]
Inhibition (%) ([1]; Dose 12.5 mg/kg): 70.7%
Inhibition (%) ([1]; Dose 25 mg/kg): 98.5%
Kb [3]: 263 nM
Inhibition (%) ([2]; Dose 25 mg/kg): 30.1%
Inhibition (%) ([2]; Dose 50 mg/kg): 45.1%
Inhibition (%) ([2]; Dose 100 mg/kg): 67.4%

SMILES: CCCNC(=O)NCCCOc1cccc(CN2CCCCC2)c1 [Example 8]
Inhibition (%) ([1]; Dose 1 mg/kg): 49.5%
Inhibition (%) ([1]; Dose 3 mg/kg): 77.5%
Inhibition (%) ([1]; Dose 6 mg/kg): 81.3%
Kb [3]: 41.7 nM
Inhibition (%) ([2]; Dose 1 mg/kg): 26.4%
Inhibition (%) ([2]; Dose 6 mg/kg): 55.4%
Inhibition (%) ([2]; Dose 16 mg/kg): 67.4%

SMILES: CCNC(=O)NCCCOc1cccc(CN2CCCCC2)c1 [Example 16, N-Ethyl-N'-[3-(3-piperidinomethylphenoxy)propyl]urea]
Inhibition (%) ([1]; Dose 5 mg/kg): 49.5%
Inhibition (%) ([1]; Dose 10 mg/kg): 77.2%
Kb [3]: 66.1 nM
Inhibition (%) ([2]; Dose 6 mg/kg): 52.6%
Inhibition (%) ([2]; Dose 25 mg/kg): 78.0%
Inhibition (%) ([2]; Dose 50 mg/kg): 89.4%

— patent publication US4952591A, “Anti-ulcer urea derivatives” (Kyorin Pharmaceutical Co., Ltd., priority 1987, dated 1990)
